From ChEMBL document CHEMBL4393653, “Applications of Deuterium in Medicinal Chemistry” (J Med Chem, 2019)

Experiments:
[1] = Half life in human liver microsomes; type: ADME, Microsome
[2] = Half life in rat at 10 mg/kg, po; type: ADME, organism-based; details: in vivo
[3] = Cmax in rat at 10 mg/kg, po; type: ADME, organism-based; set-up: dose 10 mg/kg, route oral; details: in vivo

| half-life [1] [h] | half-life [2] [h] | Cmax [3] [ng/mL] | SMILES |
| --- | --- | --- | --- |
| 1.62 |  |  | Cc1nnc(C(C)C)n1[C@@H]1C[C@H]2CC[C@@H](C1)N2CC[C@H](NC(=O)C1CCC(F)(F)CC1)c1ccccc1 [MARAVIROC] |
| 0.758 |  |  | [2H]C([2H])([2H])c1nnc(C(C)C)n1[C@@H]1C[C@H]2CC[C@@H](C1)N2CC[C@H](NC(=O)C1CCC(F)(F)CC1)c1ccccc1 |

Second part, the molecule before the results:

| SMILES | half-life [1] [h] | half-life [2] [h] | Cmax [3] [ng/mL] |
| --- | --- | --- | --- |
| [2H]C([2H])([2H])c1nnc(C(C)C)n1[C@@H]1C[C@H]2CC[C@@H](C1)N2C([2H])([2H])C[C@H](NC(=O)C1CCC(F)(F)CC1)c1ccccc1 | 2.42 |  |  |
| CS(=O)(=O)c1ccc(C2=C(c3ccccc3)C(=O)OC2)cc1 [ROFECOXIB] |  | 4.18 | 2420 |
| [2H]c1c([2H])c([2H])c(C2=C(c3ccc(S(C)(=O)=O)cc3)COC2=O)c([2H])c1[2H] |  | 4.29 | 4180 |
